Converted amounts (≈) assume the structure as drawn.

The term MIC denotes the lowest concentration that inhibits growth of the organism.

Holding throughout (experiment): ≥ marks a high value that may be exact or a test limit, other limits are often not marked, values filed in µg/mL are converted to µM
For experiment [1], the system named is Staphylococcus epidermidis C621.
In experiment [2] the test system is Salmonella enterica serovar typhimurium MS7953s.
The subject of experiment [3] is Pseudomonas aeruginosa Z61.
Experiment [4] deals with Escherichia coli UB1005.
Experiment [5] relates to Candida albicans C627.
For experiment [6], the system named is Escherichia coli DC2.
Experiment [7] concerns Pseudomonas aeruginosa K799.
Experiment [8] deals with Aeromonas salmonicida 97-4.
For experiment [9], the system named is Escherichia coli CGSC 4908.
Experiment [10] deals with Aeromonas salmonicida 99-1.
The subject of experiment [11] is Staphylococcus aureus C623.
For experiment [12], the system named is Salmonella enterica subsp. enterica serovar Typhimurium ATCC 14028s.
Experiment [13] concerns Staphylococcus aureus ATCC 25923.
For experiment [14], the system named is Bacillus subtilis ATCC 23857.
Experiment [15] relates to Cryptococcus neoformans ATCC 28957.
The subject of experiment [16] is Escherichia coli CCT 1457.
Experiment [17] concerns Bacillus cereus ATCC 11778.
Experiment [18] deals with Bacillus thuringiensis ATCC 10792.
Experiment [19] relates to Streptococcus mutans AU159.
Experiment [20] has as its system Salmonella enterica subsp. enterica serovar Typhimurium ATCC 14028.
Experiment [21] relates to Staphylococcus aureus CCT 2580.
Experiment [22] relates to Pseudomonas aeruginosa ATCC 15422.
In experiment [23] the test system is Staphylococcus aureus CCT 6538.
The test system of experiment [24] is Salmonella enterica subsp. enterica serovar Choleraesuis ATCC 10708.
In experiment [25] the test system is Micrococcus luteus ATCC 4698.
Experiment [26] has as its system Enterococcus hirae ATCC 10541.
In experiment [27] the test system is Escherichia coli ATCC 25922.
Experiment [28] has as its system Pseudomonas aeruginosa ATCC 13388.
In experiment [29] the test system is Staphylococcus epidermidis ATCC 12228.
The subject of experiment [30] is Streptococcus pneumoniae ATCC 11733.
The test system of experiment [31] is Enterococcus faecium CCT 5079.
In experiment [32] the test system is Escherichia coli ATCC 11775.
The subject of experiment [33] is Escherichia coli JW0013.

With `CC[C@H](C)[C@H](NC(=O)[C@H](C)NC(=O)CNC(=O)[C@H](Cc1cnc[nH]1)NC(=O)[C@@H](NC(=O)[C@H](Cc1ccccc1)NC(=O)[C@H](CCCCN)NC(=O)CNC(=O)[C@H](C)NC(=O)[C@H](CCCCN)NC(=O)[C@H](Cc1ccccc1)NC(=O)[C@@H](NC(=O)[C@H](Cc1cnc[nH]1)NC(=O)[C@H](CCCCN)NC(=O)[C@H](Cc1ccccc1)NC(=O)[C@@H](NC(=O)[C@H](CO)NC(=O)CNC(=O)[C@H](Cc1c[nH]c2ccccc12)NC(=O)CNC(=O)[C@H](C)N)[C@@H](C)CC)[C@@H](C)CC)[C@@H](C)CC)C(=O)N[C@@H](CCC(N)=O)C(=O)N[C@@H](C)C(=O)N[C@@H](Cc1cnc[nH]1)C(=O)N[C@@H](CC(N)=O)C(=O)N[C@@H](CC(=O)O)C(C)=O` [AGWGSIFKHIFKAGKFIHGAIQAHND], the MIC in experiment [1] was 5.61 µM (≈ 16 µg/mL); in experiment [2], 5.61 µM (≈ 16 µg/mL); in experiment [3] it was 2.81 µM (≈ 7.99 µg/mL); in experiment [4] it was 5.61 µM (≈ 16 µg/mL); in experiment [5] it was 22.4 µM (≈ 64 µg/mL); in [6], 5.61 µM (≈ 16 µg/mL). Further, the MIC in experiment [7] was 11.2 µM (≈ 32 µg/mL); in [8], 5.61 µM (≈ 16 µg/mL); in experiment [9] it was 5.61 µM (≈ 16 µg/mL); in experiment [10] it was 11.2 µM (≈ 32 µg/mL); in experiment [11] it was 5.61 µM (≈ 16 µg/mL); in experiment [12] it was 22.4 µM (≈ 64 µg/mL).
In the case of `CC[C@H](C)[C@H](NC(=O)[C@H](Cc1ccccc1)NC(=O)[C@H](CC(N)=O)NC(=O)[C@H](Cc1ccc(O)cc1)NC(=O)[C@H](CC(C)C)NC(=O)CN)C(=O)N[C@@H](CCCCN)C(=O)N[C@H](C(=O)N[C@@H](CC(C)C)C(=O)NCC(=O)N[C@@H](CCCN=C(N)N)C(=O)N[C@H](C(=O)N[C@H](C(=O)N[C@@H](Cc1ccccc1)C(=O)NCC(=O)N[C@@H](CC(C)C)C(=O)N[C@@H](Cc1ccc(O)cc1)C(=O)N[C@@H](CCCCN)C(=O)N[C@@H](CCC(N)=O)C(=O)N[C@@H](Cc1ccccc1)C(N)=O)C(C)C)[C@@H](C)O)C(C)C` [GLYNFIKVLGRTVFGLYKQF], the figures for the MIC in experiment [13], in experiment [14] and in experiment [15] were 16 µM (≈ 37.8 µg/mL), at least 256 µM and at least 64 µM, respectively.
On to `CC[C@H](C)[C@H](NC(=O)[C@H](C)NC(=O)[C@H](C)NC(=O)[C@H](CCC(N)=O)NC(=O)CNC(=O)[C@H](CC(C)C)NC(=O)[C@H](Cc1cnc[nH]1)NC(=O)[C@H](CCCCN)NC(=O)[C@H](C)NC(=O)CNC(=O)[C@H](CCCCN)NC(=O)[C@H](CCCNC(=N)N)NC(=O)[C@H](CC(C)C)NC(=O)[C@H](Cc1c[nH]c2ccccc12)NC(=O)[C@H](CCCCN)NC(=O)[C@H](CCCCN)NC(=O)[C@H](Cc1c[nH]c2ccccc12)NC(=O)CN)C(=O)N[C@@H](CCCCN)C(=O)NCC(=O)N[C@@H](CC(C)C)C(=O)N[C@@H](C)C(=O)N[C@@H](CO)C(C)=O` [GWKKWLRKGAKHLGQAAIKGLAS], for which the MIC in [1] came to 12.8 µM (≈ 32 µg/mL); in experiment [2], 0.399 µM (≈ 0.999 µg/mL); in experiment [3], 0.798 µM (≈ 2 µg/mL); in experiment [4], 1.6 µM (≈ 4 µg/mL); in experiment [5] it was 3.19 µM (≈ 7.99 µg/mL); in experiment [6], 0.399 µM (≈ 0.999 µg/mL). Moreover, the MIC in experiment [7] came out at 1.6 µM (≈ 4 µg/mL); in experiment [8], 0.399 µM (≈ 0.999 µg/mL); in experiment [9] it was 0.399 µM (≈ 0.999 µg/mL); in experiment [10] it was 0.798 µM (≈ 2 µg/mL); in experiment [11], 6.39 µM (≈ 16 µg/mL); in experiment [12], 3.19 µM (≈ 7.99 µg/mL).
`CC[C@H](C)[C@H](N)C(=O)N[C@@H](CC(N)=O)C(=O)N[C@@H](Cc1c[nH]c2ccccc12)C(=O)N[C@@H](CCCCN)C(=O)N[C@@H](CCCCN)C(=O)N[C@H](C(=O)N[C@@H](CCCCN)C(=O)N[C@@H](CCCCN)C(=O)N[C@@H](CCCCN)C(=O)N[C@H](C(=O)N[C@@H](CCCCN)C(=O)NCC(=O)N[C@@H](CCSC)C(=O)N[C@@H](CC(C)C)C(N)=O)C(C)C)[C@@H](C)CC` [INWKKIKKKVKGML]: the MIC in experiment [16] is 0.583 µM (≈ 1 µg/mL); in experiment [17], at least 72.9 µM; in experiment [18], at least 72.9 µM; in experiment [19], 9.33 µM (≈ 16 µg/mL); in experiment [20] it was 4.67 µM (≈ 8 µg/mL); in [13], 1.17 µM (≈ 2 µg/mL). In addition, the MIC in experiment [21] is 1.17 µM (≈ 2 µg/mL); in experiment [22], 9.33 µM (≈ 16 µg/mL); in experiment [23], at least 36.8 µM; in [24], 18.1 µM (≈ 31 µg/mL); in [25], 0.583 µM (≈ 1 µg/mL); in [26] it was at least 36.8 µM. The MIC in experiment [27] was found to be 9.33 µM (≈ 16 µg/mL); in experiment [28], 9.33 µM (≈ 16 µg/mL); in experiment [29], 0.583 µM (≈ 1 µg/mL); in [30], 0.583 µM (≈ 1 µg/mL); in experiment [31] it was 1.17 µM (≈ 2 µg/mL); in experiment [32] it was 9.33 µM (≈ 16 µg/mL).
Regarding `CC[C@H](C)[C@H](N)C(=O)N[C@@H](CC(N)=O)C(=O)N[C@@H](Cc1c[nH]c2ccccc12)C(=O)N[C@@H](CC(C)C)C(=O)N[C@@H](CCCCN)C(=O)N[C@H](C(=O)N[C@@H](C)C(=O)N[C@@H](C)C(=O)N[C@@H](C)C(=O)N[C@H](C(=O)N[C@@H](C)C(=O)NCC(=O)N[C@@H](CCSC)C(=O)N[C@@H](CC(C)C)C(N)=O)C(C)C)[C@@H](C)CC` [INWLKIAAAVAGML], the MIC is 21.1 µM (≈ 31 µg/mL) in experiment [16]; at least 85 µM in experiment [17]; at least 85 µM in experiment [18]; at least 340 µM in experiment [19]; 340 µM (≈ 500 µg/mL) in experiment [20]; 170 µM (≈ 250 µg/mL) in experiment [13]. Besides, the MIC in [21] was 0.68 µM (≈ 0.999 µg/mL); in experiment [22] it was 21.1 µM (≈ 31 µg/mL); in [23], at least 170 µM; in experiment [24], at least 340 µM; in [25], at least 85 µM; in [26], at least 340 µM. The MIC is 85 µM (≈ 125 µg/mL) in experiment [27]; at least 340 µM in [28]; 42.8 µM (≈ 63 µg/mL) in experiment [29]; 1.36 µM (≈ 2 µg/mL) in experiment [30]; at least 340 µM in experiment [31]; at least 340 µM in experiment [32].
`CC[C@H](C)[C@H](NC(=O)[C@H](CCCN=C(N)N)NC(=O)[C@H](CCCN=C(N)N)NC(=O)[C@@H]1CCCN1C(=O)[C@@H]1CCCN1C(=O)[C@H](CCCN=C(N)N)NC(=O)[C@@H]1CCCN1C(=O)[C@H](CCCN=C(N)N)NC(=O)[C@@H]1CCCN1C(=O)[C@H](CC(C)C)NC(=O)[C@H](Cc1ccc(O)cc1)NC(=O)[C@@H]1CCCN1C(=O)CNC(=O)[C@H](CCCCN)NC(=O)[C@H](CC(=O)O)NC(=O)[C@@H](N)C(C)C)C(=O)N[C@@H](Cc1ccc(O)cc1)C(=O)N[C@@H](CC(N)=O)C(=O)N[C@@H](CCCN=C(N)N)C(N)=O` [VDKGPYLPRPRPPRRIYNR] returned an MIC in experiment [33] of 1.4 µM (≈ 3.3 µg/mL).
As for `CC[C@H](C)[C@H](NC(=O)[C@H](CCCN=C(N)N)NC(=O)[C@H](CCCN=C(N)N)NC(=O)[C@@H]1CCCN1C(=O)[C@@H]1CCCN1C(=O)[C@H](CCCN=C(N)N)NC(=O)[C@@H]1CCCN1C(=O)[C@H](CCCN=C(N)N)NC(=O)[C@@H]1CCCN1C(=O)[C@H](CC(C)C)NC(=O)[C@H](CCCN=C(N)N)NC(=O)[C@@H]1CCCN1C(=O)[C@H](CCCCN)NC(=O)[C@H](CCCCN)NC(=O)[C@H](CC(=O)O)NC(=O)[C@@H](N)C(C)C)C(=O)N[C@@H](Cc1ccc(O)cc1)C(=O)N[C@@H](CC(N)=O)C(=O)N[C@@H](CCCN=C(N)N)C(N)=O` [VDKKPRLPRPRPPRRIYNR], the MIC in experiment [33] is 0.663 µM (≈ 1.6 µg/mL).

The record behind these values is DBAASP.
